Measurements reported in patent publication US11478474B2, “2-(3′-(hydroxymethyl)-1-methyl-5-((5-(2-methyl-4-(oxetan-3-yl)piperazin-1-yl)pyridin-2-yl)amino)-6-oxo-1,6-dihydro-[3,4′-bipyridin]-2′-yl)-7,7-dimethyl-7,8-dihydro-2H-cyclopenta[4,5]pyrrolo[1,2-a]pyrazin-1(6H)-one as a BTK inhibitor” (HUTCHISON MEDIPHARMA LIMITED, priority 2020, dated 2022).

Experiments:
BTK recombinant protein = BTK recombinant protein (Homo sapiens (Human), UniProt Q06187); experiment: Determination of biochemical BTK (Z'-LYTE kinase assay)
Chain of BTK recombinant protein (Q06187 whole entry): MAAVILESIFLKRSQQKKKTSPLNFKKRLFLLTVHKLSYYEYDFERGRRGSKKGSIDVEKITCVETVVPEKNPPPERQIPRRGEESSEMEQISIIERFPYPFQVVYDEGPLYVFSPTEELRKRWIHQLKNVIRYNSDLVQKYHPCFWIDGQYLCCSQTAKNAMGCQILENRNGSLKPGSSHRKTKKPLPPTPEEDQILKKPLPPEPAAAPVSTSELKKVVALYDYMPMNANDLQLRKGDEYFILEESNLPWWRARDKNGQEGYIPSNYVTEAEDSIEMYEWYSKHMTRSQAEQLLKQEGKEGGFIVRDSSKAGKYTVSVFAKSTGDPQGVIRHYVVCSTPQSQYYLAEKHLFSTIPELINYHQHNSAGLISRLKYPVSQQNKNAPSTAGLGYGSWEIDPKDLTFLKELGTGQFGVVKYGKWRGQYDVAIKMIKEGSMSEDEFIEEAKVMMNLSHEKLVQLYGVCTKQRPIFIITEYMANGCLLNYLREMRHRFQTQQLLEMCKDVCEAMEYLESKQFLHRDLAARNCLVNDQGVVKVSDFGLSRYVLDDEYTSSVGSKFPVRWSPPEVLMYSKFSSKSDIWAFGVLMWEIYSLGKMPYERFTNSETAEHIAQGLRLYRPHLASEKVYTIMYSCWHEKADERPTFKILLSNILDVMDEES
In short: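 Human BTK recombinant kinase (3.32 nM final) was preincubated with compound for 30 min at 4 °C. Reaction ran 1 h at room temperature with Tyr01 FRET peptide (2 μM) and ATP (32 μM); development protease then added. Coumarin 445 nm/fluorescein 520 nm emission ratio (400 nm excitation) gave inhibition across 8 concentrations, 3000–1.37 nM.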

[1] = system: B cell activation in rat whole blood; experiment: Determination of B cell activity in whole blood of rats (anti-rat IgD induced B cell activation, flow cytometry); format: cell-based; details: anti-rat immunoglobulin D 10 μg/mL, 18 hours, inhibition of B cell activation
Description: Example 4 Determination of B Cell Activity in Whole Blood of Rats
1. Reagents and Materials
Peripheral whole blood of female Wistar rats;
In the determination of the compound activity, the collected peripheral whole blood of rat was added to a 96 well plate at 80 μL/well and cultured in a 5% CO2, 37° C. cell incubator. After half an hour, the test compound was diluted with PBS in a 3-fold gradient to the corresponding concentrations, and then the diluted test compound with different concentrations was added to the culture system of rat whole blood at 10 μL/well (the final concentration of the test compound was 1.0, 0.33, 0.11, 0.037, 0.012, 0.0041, 0.0014, and 0.0005 μM, the final concentration of DMSO was 0.3%, double replicate wells), or the control solution (0.3% DMSO, 6 replicate wells) was added to the corresponding well at 10 μL/well, which were incubated in the cell incubator for one hour. Then 10 μL/well of anti-rat immunoglobulin D diluted in PBS (the final concentration was 10 μg/mL) was add to the treating wells of the test compound and control wells for anti-rat immunoglobulin D, or 10 μL/well of PBS was added to the negative control wells, which were mixed well to continue the culture in a 5% CO2, 37° C. cell incubator, and incubated for 18 hours.
On the second day, the 96-well plates were taken out and the flow cytometry antibody mixture (the final concentration of anti-rat B220PE antibody was 1 μg/mL and the final concentration of anti-rat CD86 FITC antibody was 1 μg/mL) diluted with PBS was added to each well of plate, which were incubated for 30 minutes in the dark, and then 50 μL of blood from each well was pipetted to the freshly prepared 500 μL of lysis buffer to lyse red blood cells. The plates were shaken for 20 minutes, centrifuged to remove the supernatant, then washed, fixed, and detected on a flow cytometer.
The B cell activation in the sample was determined by flow dyeing method.
The average value of the proportion of activated B cells in the wells with anti-rat immunoglobulin D but without the test compound was used as the control treating well for anti-rat immunoglobulin D, and the average value of the proportion of activated B cells in the wells without immunoglobulin D stimulation and without the test compound was used as the negative control treating well. According to the B cell activation ratio in each well, the inhibition ratio (%) of each concentration was calculated, and then the IC50 value was obtained by using the 205 model in XL-Fit 5.3 software (ID Business Solutions Limited).
The inhibition ratio is calculated as follows: inhibition ratio (%)=100%−{(treating well for the test compound−negative control treating well)/(control treating well for anti-rat immunoglobulin D−negative control treating well)}×100%, wherein,
Treating well for the test compound: represents the B cell activation ratio in rat whole blood treated with anti-rat immunoglobulin D and the test compound.
Control treating well for anti-rat immunoglobulin D: represents the B cell activation ratio in rat whole blood treated with anti-rat immunoglobulin D but without the test compound.
Negative control treating well: represents the B cell activation ratio in rat whole blood without the test compound and without immunoglobulin stimulation.
Through the above-mentioned test, the compound of the present invention has a potency to inhibit B cell activation in rat whole blood.

Row | Compound | IC50 (BTK recombinant protein) [nM] | IC50 [1] [nM]
1 | C[C@@H]1CN(c2ccc(Nc3cc(-c4ccnc(-n5ccn6c7c(cc6c5=O)CCC7)c4CO)cn(C)c3=O)nc2)[C@@H](C)CN1C1COC1 [Compound 2, 2-(5-((5-((2S,5R)-2,5-dimethyl-4-(oxetan-3-yl)piperazin-1-yl)pyridin-2-yl)amino)-3′-(hydroxymethyl)-1-methyl-6-oxo-1,6-dihydro-[3,4′-bispyridin]-2′-yl)-7,8-dihydro-2H-cyclopenta[4,5]pyrrolo[1,2-a]pyrazin-1(6H)-one] | 9 | 54
2 | COCCN1CCN(c2ccc(Nc3cc(-c4ccnc(-n5ccn6c7c(cc6c5=O)CC(C)(C)C7)c4CO)cn(C)c3=O)nc2)[C@@H](C)C1 [Compound 8] | 12 | 17
3 | Cn1cc(-c2ccnc(-n3ccn4c5c(cc4c3=O)CC(C)(C)C5)c2CO)cc(Nc2ccc(N3CCN(C4COC4)CC3)cn2)c1=O [Compound 9] | < 1 | –
4 | C[C@H]1CN(C2COC2)CCN1c1ccc(Nc2cc(-c3ccnc(-n4ccn5c6c(cc5c4=O)CC(C)(C)C6)c3CO)cn(C)c2=O)nc1 [Compound 19] | – | 3
5 | C[C@H]1CN(C2COC2)CCN1c1ccc(Nc2cc(-c3ccnc(-n4ccn5c6c(cc5c4=O)CC(C)(C)C6)c3CO)cn3ncnc23)nc1 [Compound 21] | 8 | 24
6 | C[C@H]1CN(C2COC2)CCN1c1ccc(Nc2cc(-c3ccnc(-n4ccn5c6c(cc5c4=O)CC(C)(C)C6)c3CO)nn(C)c2=O)nc1 [Compound 22] | – | 34
7 | C[C@H]1CN(C2COC2)CCN1c1ccc(Nc2cc(-c3ccnc(-n4ccn5c6c(cc5c4=O)CC(C)(C)C6)c3CO)cn3c(F)cnc23)nc1 [Compound 23] | 44 | 277
8 | C[C@H]1CN(C)CCN1c1ccc(Nc2cc(-c3ccnc(-n4ccn5c6c(cc5c4=O)CC(C)(C)C6)c3CO)cn(C)c2=O)nc1 [Compound 26] | 7 | 19
9 | C[C@@H]1CN(c2ccc(Nc3cc(-c4ccnc(-n5ccn6c7c(cc6c5=O)CC(C)(C)C7)c4CO)cn(C)c3=O)nc2)[C@@H](C)CN1C1COC1 [Compound 27] | 7 | 5
10 | Cn1cc(Nc2cc(-c3ccnc(-n4ccn5c6c(cc5c4=O)CC(C)(C)C6)c3CO)cn(C)c2=O)nn1 [Compound 28] | 3 | 78
11 | Cn1cc(-c2ccnc(-n3ccn4c5c(cc4c3=O)CC(C)(C)C5)c2CO)cc(Nc2cn(CCF)nn2)c1=O [Compound 31] | 9 | 93
12 | C[C@H]1CN(C2COC2)CCN1c1cnc(Nc2cc(-c3ccnc(-n4ccn5c6c(cc5c4=O)CC(C)(C)C6)c3CO)cn(C)c2=O)cn1 [Compound 43] | 9 | 52
13 | C[C@H]1CN(C2COC2)CCN1c1cnc(Nc2cc(-c3ccnc(-n4ccn5c6c(cc5c4=O)CC(C)(C)C6)c3CO)cn(C)c2=O)nc1 [Compound 44] | 22 | –

Continued, values first:

Row | IC50 (BTK recombinant protein) [nM] | IC50 [1] [nM] | Compound
14 | 8 | 41 | CC1CCc2cc3c(=O)n(-c4nccc(-c5cc(Nc6ccc(N7CCN(C8COC8)C[C@@H]7C)cn6)c(=O)n(C)c5)c4CO)ccn3c2C1 (mixture of isomers) [Compound 78]
15 | 4 | 26 | CN1CCN(C(=O)c2ccc(Nc3cc(-c4ccnc(-n5ccn6c7c(cc6c5=O)CC(C)(C)C7)c4CO)cn(C)c3=O)nc2)CC1 [Compound 48]
16 | 6 | 10 | C[C@H]1CN(C2COC2)CCN1c1ccc(Nc2cc(-c3ccnc(-n4ccn5c6c(cc5c4=O)CC(C)(C)C6)c3CO)n[nH]c2=O)nc1 [Compound 49]
17 | 24 | 84 | COCCN(C)c1ccc(Nc2cc(-c3ccnc(-n4ccn5c6c(cc5c4=O)CC(C)(C)C6)c3CO)cn(C)c2=O)nc1 [Compound 50]
18 | 20 | – | C[C@H]1CN(C2COC2)CCN1c1ccc(Nc2cc(-c3ccnc(-n4ccn5c6c(cc5c4=O)CCC(F)(F)C6)c3CO)cn(C)c2=O)nc1 [Compound 56]
19 | 6 | 21 | C[C@H]1CN(C2COC2)CCN1c1ccc(Nc2cc(-c3ccnc(-n4ccn5c(c(F)c6ccccc65)c4=O)c3CO)cn(C)c2=O)nc1 [Compound 57]
20 | 8 | 6 | C[C@H]1CN(C2COC2)CCN1c1ccc(Nc2cc(-c3ccnc(-n4ccn5c6c(cc5c4=O)CC(F)(F)CC6)c3CO)cn(C)c2=O)nc1 [Compound 58]
21 | 5 | 19 | C[C@@H]1CN(c2ccc(Nc3cc(-c4ccnc(-n5ccn6c(c(F)c7ccccc76)c5=O)c4CO)cn(C)c3=O)nc2)[C@@H](C)CN1C1COC1 [Compound 59]
22 | 4 | 34 | C[C@H]1CN(C2COC2)CCN1c1ccc(Nc2cc(-c3ccnc(-n4ccn5c(c(F)c6cc(F)ccc65)c4=O)c3CO)cn(C)c2=O)nc1 [Compound 60]
23 | 8 | 44 | C[C@H]1CN(C2COC2)CCN1c1ccc(Nc2cc(-c3ccnc(-n4cnn5c6c(cc5c4=O)CC(C)(C)C6)c3CO)cn(C)c2=O)nc1 [Compound 63]
24 | 20 | 52 | C[C@H]1CN(C2COC2)CCN1c1ccc(Nc2cc(-c3ccnc(-n4ccn5c6c(cc5c4=O)CCC6)c3CO)cn(C)c2=O)nc1 [Compound 64]
25 | 6 | 92 | CCn1cc(Nc2cc(-c3ccnc(-n4ccn5c6c(cc5c4=O)CC(C)(C)C6)c3CO)cn3ncnc23)nn1 [Compound 71]
26 | 17 | – | C[C@H]1CN(C2COC2)CCN1c1ccc(Nc2cc(-c3ccnc(-n4ccn5c(cc6ccccc65)c4=O)c3CO)cn(C)c2=O)nc1 [Compound 74]
27 | 11 | 85 | C[C@H]1CN(C2COC2)CCN1c1ccc(Nc2cc(-c3ccnc(-n4ccn5c(cc6cc(F)ccc65)c4=O)c3CO)cn(C)c2=O)nc1 [Compound 75]
28 | < 1 | 6 | C[C@H]1CN(C2COC2)CCN1c1ccc(Nc2cc(-c3ccnc(-n4ncn5c6c(cc5c4=O)CC(C)(C)C6)c3CO)cn(C)c2=O)nc1 [Compound 79]
